From PMC4037345 (ChemMedChem, 2014)

Columns and labels:
OVCA429 = test: Resazurin-based viability assay, 48 hr treatment, OVCA429; type: cell-based, human; conditions: read-out: OVCA429 IC50
SKOV3 = test: Resazurin-based viability assay, 48 hr treatment, SKOV3; type: cell-based, human; conditions: read-out: SKOV3 IC50
[1] = parent drugs; cited from earlier work
Albumin = Albumin (Homo sapiens, UniProt P02768); conditions: parent drugs; cited from earlier work
[2] = cited from earlier work

Sequence of Albumin (P02768 25-609, species assumed): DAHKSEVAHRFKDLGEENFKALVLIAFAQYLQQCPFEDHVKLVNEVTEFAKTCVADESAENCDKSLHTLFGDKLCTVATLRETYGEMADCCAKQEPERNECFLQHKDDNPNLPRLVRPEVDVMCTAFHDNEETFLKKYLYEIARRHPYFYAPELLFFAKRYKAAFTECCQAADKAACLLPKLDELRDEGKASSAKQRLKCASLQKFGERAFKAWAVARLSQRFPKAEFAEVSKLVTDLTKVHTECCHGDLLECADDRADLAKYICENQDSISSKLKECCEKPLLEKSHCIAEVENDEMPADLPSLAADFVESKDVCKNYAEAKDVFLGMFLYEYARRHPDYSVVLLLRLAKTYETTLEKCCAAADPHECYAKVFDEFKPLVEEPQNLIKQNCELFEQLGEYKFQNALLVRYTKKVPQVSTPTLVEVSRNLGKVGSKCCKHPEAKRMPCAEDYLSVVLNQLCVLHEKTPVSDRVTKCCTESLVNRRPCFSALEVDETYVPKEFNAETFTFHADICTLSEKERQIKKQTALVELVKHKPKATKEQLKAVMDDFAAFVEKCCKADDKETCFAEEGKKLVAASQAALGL

| SMILES | IC50 (OVCA429) | IC50 (SKOV3) | logP [1] | % Albumin Binding (Albumin) | t1/2 initial (initial plasma half-life) [2] |
| --- | --- | --- | --- | --- | --- |
| N.N.O=C([O-])C1(C(=O)[O-])CCC1.[Pt+2] [Carboplatin, carboplatin] | 210 ± 6 µM | 100 ± 6 µM | -2.3[30] | 40[29] % | 5[32-33] min |
| N.N.[Cl][Pt][Cl] [Cisplatin, cisplatin] | 15 ± 1 µM | 3 ± 0.3 µM | – | – | – |
